Test results from article PMC12148948, “Targeting enabled homolog with daunorubicin inhibits ERK1/2/c‐Fos pathway and suppresses hepatocellular carcinoma progression” (Clinical and Translational Medicine, 2025).

Biological target: T1, enabled homolog (ENAH) (Homo sapiens, UniProt Q8N8S7)
T1 sequence (Q8N8S7 1-591): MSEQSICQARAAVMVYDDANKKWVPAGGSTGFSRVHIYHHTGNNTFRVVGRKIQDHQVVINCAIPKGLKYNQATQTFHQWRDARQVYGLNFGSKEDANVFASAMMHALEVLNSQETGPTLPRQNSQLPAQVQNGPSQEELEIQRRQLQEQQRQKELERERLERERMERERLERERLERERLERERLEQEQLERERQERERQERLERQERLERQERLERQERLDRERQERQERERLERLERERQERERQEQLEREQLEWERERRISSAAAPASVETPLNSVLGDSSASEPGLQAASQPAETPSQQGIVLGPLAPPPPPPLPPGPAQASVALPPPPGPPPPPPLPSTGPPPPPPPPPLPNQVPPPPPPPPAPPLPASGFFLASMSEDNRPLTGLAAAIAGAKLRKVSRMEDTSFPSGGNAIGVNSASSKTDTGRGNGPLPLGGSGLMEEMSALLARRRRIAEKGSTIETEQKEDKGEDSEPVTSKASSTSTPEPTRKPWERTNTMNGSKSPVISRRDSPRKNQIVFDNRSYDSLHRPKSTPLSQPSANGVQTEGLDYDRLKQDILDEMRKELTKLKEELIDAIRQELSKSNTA
Test: CETSA in HCCLM3 cells ([…] daunorubicin), western blot
Format: cell-based

Structure (SMILES): COc1cccc2c1C(=O)c1c(O)c3c(c(O)c1C2=O)C[C@@](O)(C(C)=O)C[C@@H]3O[C@H]1C[C@H](N)[C@H](O)[C@H](C)O1 [compound 11, daunorubicin]
- CETSA in HCCLM3 cells (1 μM daunorubicin), western blot: The interaction between ENAH and daunorubicin was confirmed by the cellular thermal shift assay (CETSA)
